From paper PMC8158122, “Development of Pelubiprofen Tromethamine with Improved Gastrointestinal Safety and Absorption” (Pharmaceutics, 2021)
≈ marks a conversion by molar mass, not a printed value. Like-named read-outs stand apart in the source and are kept apart here.

Legend:
[1] = Stress stability test (high temperature or high humidity); assay type: physicochemical
Description: (§1) PEL and butylparaben (IS) were prepared and further diluted in a mixture of methanol and deionized water at a ratio of 4:1 (v/v) to provide a working PEL and IS solution of concentration 30 µg/mL. The PEL concentration was determined using an HPLC system (Model 1260; Agilent Technologies Inc., Santa Clara, CA, USA). Chromatographic separation was performed using a C18 column (4.6 × 150 mm, 5 µm, Waters, Milford, MA, USA) at a flow rate of 1.1 mL/min with the mobile phase consisting of methanol, water, and acetic acid at a ratio of 1200:800:1 (v/v). The sample was injected into the column, and the peaks were monitored using a UV detector at 274 nm.
Stability tests of PEL-T and PEL were performed under stress storage conditions. PEL-T and PEL were packed into high-density polyethylene (HDPE) bottles with caps and used as stability test samples. For stress stability, the samples were stored at a high temperature (80 ± 5 °C) or high humidity (relative humidity (RH) 90 ± 5%). The drug content and impurities were determined using the HPLC assay described above (Section 2.4) at the following time points: 0, 14, and 21 days (Tables S3 and S4).

[2] = parameters: method as in PMID 27492018, doi:10.2133/dmpk.10.637; conditions: oral administration, rats; cited from earlier work
[3] = tested on: Caco-2 cells; test: Permeability test in Caco-2 cell monolayers; assay type: in vitro ADME
Description: (§2) Caco-2 monolayer experiments were performed as previously described with a few modifications [20]. The Caco-2 cells were obtained from the Korean Cell Line Bank (Seoul, Korea) and used in the transport experiments between passages 40 and 50. The cells were cultured at 37 °C with 5% CO2 and maintained in Dulbecco’s modified Eagle’s medium with 10% fetal bovine serum, 1% nonessential amino acids, 10,000 units/mL penicillin, and 10,000 μg/mL streptomycin. For the transport studies, cells were seeded on rat tail collagen-coated Transwell insert filters on 12-well plates at 3 × 10^5 cells/500 μL and were cultured for 21–29 days. For the first 7 days, the medium was replaced every 2–3 days, and daily thereafter. Monolayer integrity was checked before and after each experiment using a Millicell-ERS instrument to determine the transepithelial electrical resistance (TEER) across the monolayer and to ensure that there were no substantial changes in the monolayer integrity throughout the duration of the experiments.
(§3) Prior to transport experiments, the cell monolayers were washed twice using Hank’s balanced salt solution (HBSS), and the Caco-2 cell Transwell model was preincubated at 37 °C for 15 min. […] The sample was pretreated using a protein precipitation method and the concentrations of PEL in each sample were determined using an LC–MS/MS assay, as described below (Section 2.9). […] The sample was pretreated using a protein precipitation method and the concentration of PEL in each sample was determined using an LC–MS/MS assay. The steady state flux (Js) and permeability coefficient (Kp) were calculated according to Equations (1) and (2):Js [ng/(cm^2 × h)] = Qr/(A × t)(1) Kp (cm/h) = Js/Cd(2) where Qr is the total permeation amount of PEL in the basolateral (for the absorptive transport) or apical (for the secretory transport) side (ng), A is the surface area of the insert (1.12 cm^2), t is the permeation time (h), and Cd is the initial drug concentration in the apical (for the absorptive transport) or basolateral (for the secretory transport) side (ng/cm^3). […]

[4] = Permeability test in Caco-2 cell monolayers; assay type: in vitro ADME; conditions: human, Caco-2; Kp [B to A]/Kp [A to B]
Description: as §2, §3

[5] = tested on: gastric mucosa; test: Gastric mucosal injury test in rats; assay type: in vivo, Sprague-Dawley (SD) rats; conditions: single p.o. dose equivalent to PEL 300 mg/kg, 6 h after dosing, 48 h fasted male SD rats, n = 10
Description: The gastric mucosal injury test was performed by KNOTUS Co., Ltd. (Guri, Korea) and approved by the Animal Ethics Committee (Protocol number: […]-354 approved 18 October 2018). Male Sprague-Dawley (SD) rats (7-weeks-old) from Orient bio Co., Ltd. […] The rats were randomly divided into three groups, each group consisting of 10 animals. […] The area of the lesions was analyzed using ImageJ software (National Institutes of Health, Bethesda, MD, USA).

[6] = parameters: method as in PMID 27492018, doi:10.2133/dmpk.10.637; conditions: oral administration, cited from earlier work
[7] = PK study in rats after oral administration; assay type: in vivo, Sprague-Dawley (SD) rats; conditions: male, Sprague-Dawley, rat, PEL in plasma, single oral dose 9.3 mg/kg PEL equivalent, n = 10
Description: Male Sprague-Dawley (SD) rats (8-weeks-old) from DBL Co., Ltd. (Eumseong, Korea) were maintained under constant laboratory conditions (temperature: 22 ± 3 °C, RH: 50 ± 20%, light/dark cycle: 12 h). The rats were divided into two groups, each composed of 10 rats. The animals were fasted overnight and were only allowed free access to water. […] Blood samples (500 μL) were collected directly from the jugular vein at predetermined time points (0, 0.083, 0.167, 0.25, 0.5, 0.75, 1, 2, 3, 4, and 8 h) using heparinized syringes. The collected blood samples were centrifuged immediately at 12,000 rpm for 5 min at 4 °C and the obtained plasma samples were stored at −70 °C until analysis.
The plasma concentration of PEL was determined using LC–MS/MS (Agilent 1260; Agilent Technologies Inc., Santa Clara, CA, USA). The chromatographic separation of PEL was performed using an ODS column (Poroshell 120 EC-C18, 2.1 × 30 mm, 2.7 µm, Agilent Technologies Inc., Santa Clara, CA, USA). The mobile phase (MP) consisted of 0.1% formic acid and acetonitrile with a gradient elution and the flow rate used was 0.4 mL/min. Mass spectrometric detection was done using an AB Sciex API 4000 triple quadrupole mass spectrometer (AB Sciex Instruments, Framingham, MA, USA). The electrospray ionization (ESI) source was set to positive ion mode. The mass-to-charge ratios (m/z) used were 259.0 → 195.2 for PEL and 255.1 → 208.9 for ketoprofen, which were used as the internal standards (IS). […] The assay method was validated for linearity, accuracy, and precision.
The PK parameters for PEL were calculated using the noncompartmental analysis and WinNonlin® 8.1 (Pharsight, CA, USA). The area under the plasma concentration–time curve from 0 h to the last time point (AUCt) was calculated for all samples using the linear trapezoidal method. The maximum plasma concentration and time to reach the maximum plasma concentration (Tmax) were directly obtained from the plasma concentration–time profiles.

[8] = Solubility at various pH values; assay type: physicochemical; conditions: thermodynamic from solid, stirred 24 h, mean ± S.D. (n = 3)
Description: as §1
The solubilities of PEL-T and PEL were compared and evaluated based on the pH changes. After dissolving 5 g of PEL-T and PEL each in 5 mL of water, a pH 1.2 solution, a pH 4.0 solution, and a pH 6.8 solution, respectively, the mixtures were stirred for 24 h, filtered using a 0.45 μm polyvinylidene difluoride (PVDF) syringe filter, and then were analyzed using an HPLC assay, as described above (Section 2.4).

Q: With CC(C(=O)O)c1ccc(C=C2CCCCC2=O)cc1 (stereo not drawn) [PEL, 2-[4-(2-oxocyclohexylidenemethyl)phenyl] propionic acid] as the compound, how does the “Changes in the drug contents in the stress stability test” value ([1]; 80 ± 5 °C or RH 90 ± 5%, entire period (21 days)) read?
A: No significant changes

Q: And the Contents ([1]; 80 ± 5 °C, 0 days)?
A: 98.6 ± 0.8%

Q: And the Contents ([1]; 80 ± 5 °C, 14 days)?
A: 98.2 ± 0.6%

Q: What about the Contents ([1]; 80 ± 5 °C, 21 days) of the same compound?
A: 97.1 ± 0.9%

Q: And the Contents ([1]; RH 90 ± 5%, 0 days)?
A: 98.6 ± 0.8%

Q: What about the Contents ([1]; RH 90 ± 5%, 14 days) of the same compound?
A: 98.9 ± 0.4%

Q: And the Contents ([1]; RH 90 ± 5%, 21 days)?
A: 98.5 ± 0.4%

Q: And the “Time to reach the maximum plasma concentration (Cmax)” value (shortened to “Time … (Cmax)”) [2]?
A: 30 min

Q: What about the “Efflux ratio, times higher than that of PEL-T” value [3] of the same compound?
A: 1.6 times

Q: What about the “Kp B to A, times higher than that of PEL-T” value ([3]; secretory direction, not statistically significant) of the same compound?
A: 1.3 times

Q: And the efflux ratio at 120 min, 50 μM [4]?
A: 1.24

Q: And the “Damage area (mucosal hemorrhagic lesions)” value [5]?
A: 4.01%

Q: What about the “Time … (Cmax)” value ([6]; female beagle dogs) of the same compound?
A: 2 h

Q: And the “Time … (Cmax)” value ([6]; male beagle dogs)?
A: 1 h

Q: What about the AUC(0-t) [7] of the same compound?
A: 19.2 ± 7.01 ng·h/mL

Q: And the Cmax [7]?
A: 46.3 ± 29.2 ng/mL

Q: What about the Tmax ([7]; plasma, po, 9.3 mg/kg) of the same compound?
A: 23.4 ± 11.4 min

Q: And the solubility at 24 h ([8]; aqueous buffer, pH 4.0 solution)?
A: 70 ± 40 µg/mL (≈ 271 µM)

Q: What about the solubility at 24 h ([8]; aqueous buffer, pH 6.8 solution) of the same compound?
A: 4050 ± 140 µg/mL (≈ 15700 µM)

Q: And the solubility at 24 h ([8]; simulated gastric fluid, pH 1.2 solution)?
A: 30 ± 10 µg/mL (≈ 116 µM)

Q: And the solubility at 24 h ([8]; water)?
A: 130 ± 30 µg/mL (≈ 503 µM)
